Results on 5 compounds are retold here after PMC3693115 (Evidence-based Complementary and Alternative Medicine : eCAM, 2013).

The nature of data set [1]: DPPH microplate assay (radical scavenging activity). Conditions: for Antioxidant IC50 (radical scavenging activity) / Antioxidant % inhibition (at 100 µg/mL): mean ± SEM (n = 3). As for the experimental part:
The antioxidant capacity was estimated in terms of radical scavenging activity according to a modified version of Brand-Williams method. Briefly, 100 μL of tested compounds at least 5 concentrations (dissolved in MeOH) was thoroughly mixed with 100 μL of freshly prepared DPPH solution (3 × 10^−5 M dissolved in MeOH). The reaction mixture was incubated for 30 min, then, the absorbance was read at 517 nm. Each assay was done in triplicate. IC50 value was determined by a linear regression analysis between the inhibition percentages against the concentration of tested compounds by using the Excel program.

In data set [2] the target is T1, AChE (purified enzyme from eel (Electrophorus electricus) type VI-s) (Electrophorus electricus, UniProt O42275).
T1 construct: a purified enzyme from eel (Electrophorus electricus) type VI-s; purchased Sigma (St. Louis, MO, USA); host or cells: purified from electric eel (natural source)
T1 sequence (O42275 24-633): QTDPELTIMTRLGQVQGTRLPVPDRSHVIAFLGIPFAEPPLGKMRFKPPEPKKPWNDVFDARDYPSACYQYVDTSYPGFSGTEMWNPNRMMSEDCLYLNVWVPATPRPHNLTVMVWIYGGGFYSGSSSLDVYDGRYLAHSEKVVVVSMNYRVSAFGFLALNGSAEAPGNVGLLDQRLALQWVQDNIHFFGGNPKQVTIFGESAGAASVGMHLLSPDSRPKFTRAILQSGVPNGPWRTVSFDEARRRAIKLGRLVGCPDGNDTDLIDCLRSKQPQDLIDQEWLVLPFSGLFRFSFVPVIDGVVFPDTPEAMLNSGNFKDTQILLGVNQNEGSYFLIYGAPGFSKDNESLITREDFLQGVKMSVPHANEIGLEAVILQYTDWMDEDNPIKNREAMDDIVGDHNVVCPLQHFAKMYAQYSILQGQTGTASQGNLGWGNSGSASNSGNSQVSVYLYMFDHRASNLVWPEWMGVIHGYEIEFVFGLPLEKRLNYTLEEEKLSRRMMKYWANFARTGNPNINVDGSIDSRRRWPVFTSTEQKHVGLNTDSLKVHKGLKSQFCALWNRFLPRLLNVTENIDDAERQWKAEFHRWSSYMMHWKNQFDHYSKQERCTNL
Description: biochemical. The note with it: mean ± SEM (n = 3); for inhibition at 100 µg/mL: read-out: Anticholinesterase (using purified enzyme from E. electricus) % inhibition (at 100 µg/mL). As for the experimental part: Ellman's colorimetric method and modified method using 96-well microplates were used. Briefly, […], the product of hydrolysis reaction of ACh by cholinesterase, will react with DTNB to give 2-nitro-5-thiobenzoate (NTB^−), which ionizes to the NTB^2- dianion (in water at pH 8). This NTB^2- ion appears as yellow, which is quantified by measuring the absorbance of visible light at 405 nm. Briefly, tested compound was prepared in buffer a containing 50% MeOH. In a 96-well microtiter plate, 25 μL of tested sample was added to 200 μL reaction medium that consisted of 50 μL of buffer (50 mM TrisHCl pH 8.0) containing 0.1% BSA, 125 μL of 3 mM DTNB in buffer containing 0.1 M NaCl, and 0.02 M MgCl2·2H2O and 25 μL of 15 mM ATCI in deionized water. These contents were mixed and preincubated for 5 min at 37°C. The plate was pre-read at 405 nm using a microplate reader (TECAN M200, Switzerland). Thereafter, the reaction was initiated by the addition of 25 μL of AChE (0.22 U/mL). After 20 min incubation at 37°C, absorbance was measured again within 4–7 min. The reaction control consisted of reaction medium (200 μL), 25 μL of enzyme, and 25 μL of 50% MeOH in buffer. Two blanks were also carried out (with and without sample), and MeOH was used as the solvent control. […] Each assay was done in triplicate.

The target of data set [3] is cellular AChE of SK-N-SH cells (Homo sapiens, UniProt P22303). Description: cell-based. On the set-up: host or cells: SK-N-SH human neuroblastoma cells. The note with it: for IC50: mean ± SEM (n = 3), read-out: Anticholinesterase (using neuroblastoma cell) IC50 (converted); for inhibition at 100 µg/mL: read-out: Anticholinesterase (using neuroblastoma cell) % inhibition (at 100 µg/mL), 100 µg/mL, mean ± SEM (n = 3). As for the experimental part:
The human neuroblastoma cell line SK-N-SH was purchased from the American Type Culture Collection (Manassas, VA, USA). The SK-N-SH cells were cultured in minimum essential medium from Gibco (California, USA), supplemented with 10% heat inactivated FBS, 2% supplementary amino acid solution, and 1% Glutamax (Gibco, California, USA), 1% penicillin/streptomycin. Incubation was carried out at 37°C in a humidified atmosphere of 5% CO2-95% […] atmosphere. Cells were seeded into 96-well microplates (Nunc, Roskilde, Denmark) at a density of 1 × 10^5 cells/mL (100 μL in each well). Experiments were carried out after 24 h of seeding.
One of the important neuronal properties of SK-N-SH cells is the synthesis of neurotransmitter enzymes. The inhibition activity of samples on this cell line was investigated by the modified Ellman's colorimetric method. The condition was slightly modified to enable the cellular enzyme to work properly. Briefly, 25 μL of sample dissolved in buffer containing 50% methanol, 100 μL of 3 mM DTNB in buffer containing 0.1 M NaCl and 0.02 M MgCl2·2H2O, and 25 μL of 15 mM ATCI in deionized water were added to the well containing 100 μL of the cells. The absorbance at 405 nm was measured by a microplate reader (TECAN M200, Switzerland). All assays were done in triplicate.

A short description of another data set: in vitro. The data set is classed as cell-based. Conditions: mouse.
In data set [4] the test system is P19-derived neurons. Briefly: Neuritogenic assay (neurite number and length). The data set is classed as cell-based, Murine. The note with it: 1 nM, 24 h, 30 neurons measured. As for the experimental part: Murine P19 embryonic carcinoma cells were purchased from American Type Culture Collection (ATCC), USA. P19 cells were cultured as described by Mcburney in a slightly modification. In brief, the undifferentiated P19 cells were cultured as monolayers in α-MEM with 7.5% NCS, 2.5% FBS, and 1% antibiotics-antimycotic solution in a 25-cm^2 tissue culture flask, incubated at 37°C in a humidified atmosphere of 5% CO2. Cells in monolayer cultures were maintained in exponential growth phase by subculturing every 2 days until use.
The exponentially grown cultures indicated the cells density by trypan blue exclusion assay. Then, neuronal differentiation was induced by seeding 2 × 10^6 cells/mL cell in a 100 mm bacteriological grade culture dish containing 10 mL α-MEM supplemented with 5% FBS, 1% antibiotics-antimycotic solution, and 0.5 μM RA. […]
The assay was carried out with P19-derived neurons cultured in a poly-L-lysine-precoated 6-well plate. […] Average length and number of neurites of 30 neurons from the assay were measured. […] The data were expressed as the mean ± SEM from three independent experiments.

The test system of data set [5] is P19-derived neurons. Briefly: Neuroprotective activity against oxidative stress induced by serum deprivation (XTT). It counts as cell-based, Murine. The note with it: 1 nM, 24 h. A general note: Tetrazolium dyes change colour on reduction, which living cells bring about.
Description: Murine P19 embryonic carcinoma cells were purchased from American Type Culture Collection (ATCC), USA. P19 cells were cultured as described by Mcburney [24, 25] in a slightly modification [26, 27]. In brief, the undifferentiated P19 cells were cultured as monolayers in α-MEM with 7.5% NCS, 2.5% FBS, and 1% antibiotics-antimycotic solution in a 25-cm^2 tissue culture flask, incubated at 37°C in a humidified atmosphere of 5% CO2. Cells in monolayer cultures were maintained in exponential growth phase by subculturing every 2 days until use.
The blank control was cultured in α-MEM supplemented with 10% FBS and 10 μM Ara-C. The cell survival ability was measured using the XTT method.

cellular AChE of SK-N-SH cells, sequence (P22303 32-614): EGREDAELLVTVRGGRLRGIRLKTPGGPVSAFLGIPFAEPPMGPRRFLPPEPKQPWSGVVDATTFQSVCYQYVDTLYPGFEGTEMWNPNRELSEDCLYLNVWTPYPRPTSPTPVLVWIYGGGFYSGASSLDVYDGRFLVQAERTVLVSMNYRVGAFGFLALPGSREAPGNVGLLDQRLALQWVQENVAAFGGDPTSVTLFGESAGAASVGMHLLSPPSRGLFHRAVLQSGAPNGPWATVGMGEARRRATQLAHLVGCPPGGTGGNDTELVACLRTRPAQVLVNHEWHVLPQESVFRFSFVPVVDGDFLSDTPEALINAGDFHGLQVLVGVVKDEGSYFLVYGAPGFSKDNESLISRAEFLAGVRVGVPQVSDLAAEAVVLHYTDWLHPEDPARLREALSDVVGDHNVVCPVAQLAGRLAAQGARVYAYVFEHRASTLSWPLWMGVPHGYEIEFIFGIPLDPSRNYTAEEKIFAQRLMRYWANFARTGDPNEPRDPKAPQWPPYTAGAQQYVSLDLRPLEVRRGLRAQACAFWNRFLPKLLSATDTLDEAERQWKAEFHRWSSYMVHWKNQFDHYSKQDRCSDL
Description for in vitro: The exponentially grown cultures indicated the cells density by trypan blue exclusion assay. Then, neuronal differentiation was induced by seeding 2 × 10^6 cells/mL cell in a 100 mm bacteriological grade culture dish containing 10 mL α-MEM supplemented with 5% FBS, 1% antibiotics-antimycotic solution, and 0.5 μM RA. […] After 4 days of RA treatment, aggregates were dissociated with trypsin, washed, resuspended on poly-L-lysine-precoated 96-well plates (plates were previously coated with 50 μg/mL poly-L-lysine dissolved in PBS for overnight and sterilized under UV light for 30 min) at a cell density of 7 × 10^4 cells/mL (150 μL/well) in α-MEM supplemented with 10% FBS and 1% antibiotics-antimycotic solution, and incubated for 24 h. Ara-C (10 μM) was added at day one after plating to inhibit the proliferation of nonneuronal cells. […]
The procedure was carried out on P19-derived neurons cultured in a 96-well plate [29]. […] The data were expressed as the mean ± SEM (n = 3), with the medium as a control representing 100% cell viability.

For the compound `O=C1O[C@H]([C@@H](O)CO)C(O)=C1O` [Ascorbic acid, reference compound], the “Antioxidant IC50 (radical scavenging activity)” value (shortened to “Antioxidant IC50”) in data set [1] amounted to 10.52 ± 0.48 µg/mL.
As to `O=C(O)c1cc(O)c(O)c(O)c1` [Gallic acid], in data set [1], the “Antioxidant % inhibition (at 100 µg/mL)” value came out at 94.76 ± 0.51% and the “Antioxidant IC50” value is given as 4.83 ± 0.02 µg/mL. Further, the IC50 in data set [2] (read-out: Anticholinesterase (using purified enzyme from E. electricus) IC50 (converted)) is 74.8 µM. The inhibition at 100 µg/mL in data set [2] was found to be 73.64 ± 0.06%. In data set [3], the IC50 is 16.4 µM and the inhibition at 100 µg/mL amounted to 90.7 ± 2.66%.
Consider `O=c1c(O)c(-c2ccc(O)c(O)c2)oc2cc(O)cc(O)c12` [Quercetin, 3,3′,4′,5,7-pentahydroxyflavone], for which, in data set [1], the “Antioxidant % inhibition (at 100 µg/mL)” value stood at 92.61 ± 0.99% and the “Antioxidant IC50” value amounted to 3.18 ± 0.07 µg/mL. Moreover, the IC50 in data set [1] (converted to molar, read-out: Antioxidant activity IC50 in micromolar range) came to 9.4 µM. Besides, the inhibition at 100 µg/mL in data set [2] worked out at 80.9 ± 2.52%. Besides, in “in vitro”, the IC50 at 18 h is more than 10 µM. Further, the viability at 24 h, 0.001 µM in the data set “in vitro” (1 nM, 24 h treatment, relative to control (100%), read-out: % cell viability of cultured neurons) is more than 100%. This compound came in with a Neurite length in the data set on P19-derived neurons [4] of 139.00 ± 108.80 μm. In the data set on P19-derived neurons [5] (compared to the control (P19SM)), the “Cell survival in serum-supplemented culture” value turned out to be 128.01%. Moreover, the “Cell survival in serum-deprived culture” value in the data set with P19-derived neurons [5] (serum-free α-MEM, serum deprivation alone 31.16%) is listed as 88.29%. In data set [3], the IC50 is 121 µM and the inhibition at 100 µg/mL is 82 ± 3.34%.
With `Cc1c(C)c2c(c(C)c1O)CCC(C)(C(=O)O)O2` (centres unmarked) [Trolox, reference compound], the “Antioxidant IC50” value in data set [1] was determined as 12.54 ± 0.89 µg/mL.
With `COC1=C2C[C@@H](C)C[C@H](OC)[C@H](O)[C@@H](C)/C=C(\C)[C@H](OC(N)=O)[C@@H](OC)/C=C\C=C(/C)C(=O)NC(=CC1=O)C2=O` [geldanamycin, Geldanamycin, reference compound], in the data set with P19-derived neurons [4], the Amount of neurites stood at 2.03 ± 1.30.

The term IC50 denotes the midpoint of a concentration-inhibition curve. The term viability denotes the share of living cells, or the viability signal relative to a control.
